Values of other authors in patent US9987593B2, “Method for producing NOx storage-reduction catalyst” (TOYOTA JIDOSHA KABUSHIKI KAISHA, priority 2016, dated 2018).

| solubility in water (in words) | solubility in water [mg/100 ml H2O] | Compound |
| --- | --- | --- |
| substantially insoluble in water | – | O=C(O)c1nc(=O)[nH]c(=O)[nH]1 [oteracil potassium, reference compound] |
| substantially insoluble in water | 0.18 | [K+].c1ccc([B-](c2ccccc2)(c2ccccc2)c2ccccc2)cc1 [potassium tetraphenylborate] |
